Where “and” joins values, the source holds several entries; their conditions need not be identical. Equal entries are not always repeated. Where a SMILES comes first, the peptide text is derived from it.

One data set in a line: Water solubility. The settings on record: qualitative, text in Fig. 1d. The class given is physicochemical.
The subject of data set [1] is CLP-induced sepsis in BALB/c mice. The data set is described as follows: Septic survival after cecal ligation and puncture (CLP). The class given is in vivo, mouse. The settings on record: i.p. As to the method: (§1) Experimental sepsis was induced in BALB/c mice via CLP as previously described. […] The animals were randomly assigned to the control vehicle (n = 10 or n = 20) or experimental groups (n = 10 or n = 20). P2 (5.0 mg/kg), P2-1 (0.1 mg/kg or 1.0 mg/kg), or tetranectin N-terminal deletion mutant (ΔTN) (1.0 mg/kg) were administered intraperitoneally (i.p.) at the indicated time points, and survival rates were monitored. To elucidate P2-1’s protective mechanisms, a separate group of BALB/c mice (n = 4) underwent CLP and received P2-1 (1.0 mg/kg) at 2 h and 20 h post-CLP. At 24 h post-CLP, the animals were euthanized, blood was collected, and serum cytokines and chemokines were measured via murine cytokine antibody arrays as previously described. More details are presented in Additional file 1: Methods.
For these preclinical studies, animals were random ly assigned to experimental groups and treated with P2, P2-1, or a pCTS-L-neutralizing mAb2 according to the indicated dosing regimens. Outcomes, including septic survival rates, arthritis severity, pain sensitivity, and joint tissue histology scores, were collected under blinded experiment al conditions. The study d esign and sample si zes fo r each exp eriment are d etailed in the figure legends. No data, including outlier values, were excluded. For skewed data, outliers were defined via the interquartile range (IQR) method as any value below Q 1 –(1.5 × IQR) or above Q 3 + (1.5 × IQR). For normally distributed data, outliers were defined via the Z-score method as any value with an absolute Z-score greater than 2 or 3. The primary data are reported in Additional file 4. All the reagent sources are listed in Additional file 1: Table S1 .
Cecal ligation and puncture (CLP) sepsis model […]
screening. c Expression and purification of recombinant full-length human TN (residues 1 – 181) and its N-terminal deletion mutant ( ΔTN, residues 45 – 181). […] Recombinant Δ TN was given intraperitoneally at 24 h and 48 h post-C L P, and animal survival rates were monitored. *P < 0.0 5. […]

In data set [2] the test system is CLP-induced serum cytokines and chemokines. Kind of data set: Serum cytokines/chemokines after CLP, murine cytokine antibody arrays. The class given is in vivo, mouse. Details: BLC / G-CSF / GM-CSF / IL-6 / KC / MCP-1 / MIP-2 / MIP-1 gama / PF-4 / sTNF-RI: unit not given here. The settings on record: for BLC / G-CSF / GM-CSF / IL-6 / KC / MCP-1 / MIP-1 gama / MIP-2 / PF-4 / sTNF-RI: serum 24 h, individual values. As to the method:
as §1
The levels of cytokines and chemokines in mouse serum and joint tissue lysates, or human PBMC culture supernatants, were determined via murine or human cytokine antibody arrays (e.g., Cat. #AAM-CYM-3–8 or Cat. #AAH-CYT-3–8, RayBiotech Inc., Norcross, GA, USA) as previously described. For the sepsis model, blood samples were collected from the mice (n = 4) at 24 h post-CLP. For the CAIA model, soft tissues from the hindpaw and ankle joints were carefully harvested from normal (n = 2) and CAIA (n = 4) mice using a previously established protocol. Briefly, 0.5 g of fresh soft tissue was cut into 3 mm pieces and mixed with 400 µl of a hypertonic solution (500 ml of PBS with 4.5 g of NaCl and 2 × protease inhibitor cocktail) in a 10 ml syringe. Mechanical extrusion, involving 30 rapid back-and-forth movements of the plunger, was then performed. The expelled extracellular fluid was collected, immediately aliquoted, and stored at −20 °C until analysis. Cell-conditioned medium was collected from PBMC cultures after 16 h of stimulation. Arrays were performed according to the manufacturer’s protocol, followed by chemiluminescent detection and densitometric quantification as previously described.
BALB/c mice subjected to CLP-induced sepsis received P2-1 (0.1 or 1.0 mg/kg) intraperitoneally twice, at 2 h and 20 h post-CLP. At 24 h post-CLP, the animals were sacrificed, and blood was harvested for cytokine and chemokine measurements via cytokine antibody arrays. ^*P < 0.05 vs. the negative control (“- CLP”); ^#P < 0.05 vs. the positive control (“ + CLP”) group, non-parametric Kruskal-Wallis ANOVA test. CLP cecal ligation and puncture, BLC B-lymphocyte chemoattractant, CCL C–C motif chemokine ligand, CXCL C-X-C motif chemokine ligand, IL interleukin, G-CSF granulocyte colony-stimulating factor, KC keratinocyte-derived chemokine, GRO growth-regulated oncogene, MIP macrophage inflammatory protein, PF platelet factor, sTNFR soluble tumor necrosis factor receptor

The mark [3] stands for this setting: CLP + P2-1 0.1 mg/kg, 0.1 mg/kg.

On to `CCCC[C@H](NC(=O)[C@H](Cc1c[nH]cn1)NC(=O)[C@@H](NC(=O)[C@H](CCCCN)NC(=O)[C@@H](N)[C@@H](C)O)C(C)C)C(=O)N[C@@H](CCCCN)C(=O)N[C@@H](CO)C(=O)N[C@@H](Cc1ccccc1)C(=O)N[C@@H](CC(C)C)C(=O)N[C@@H](C)C(=O)N[C@@H](Cc1ccccc1)C(=O)N[C@@H](CCC(N)=O)C(=O)N[C@H](C(=O)N[C@@H](CCCCN)C(=O)N[C@H](C(=O)O)[C@@H](C)O)[C@@H](C)O` [P2-1] (HELM PEPTIDE1{T.K.V.H.[Nle].K.S.F.L.A.F.Q.T.K.T}$$$$V2.0; N-terminus and C-terminus assumed), for which, in the data set “Water solubility”, the Water solubility result is “Good water solubility”. Further, the “septic survival, in words” value in data set [1] (P2-1 0.1 mg/kg at 2, 20, 28, 44, and 52 h post-CLP) is reported as “conferred significant protection against sepsis”. In data set [1] (P2-1 1.0 mg/kg at 24 h and 48 h post-CLP), the “septic survival, in words” value is listed as “potent protection against lethal sepsis even with delayed therapeutic administration”. Besides, the BLC in data set [2] (CLP + P2-1 0.1 mg/kg i.p. 2 h and 20 h post-CLP, 0.1 mg/kg) is 257.4 and 202.1 and 204.2 and 224.3. Moreover, in data set [2] (setting [3]), the G-CSF was 161.4 and 173.4 and 290.4 and 305.7; the GM-CSF is 23.2 and 56 and 52.8 and 13.6; the IL-6 is 59.36 and 56.19 and 57.95 and 55.32; the KC is 128.7 and 116.3 and 31.9 and 105.9. Further, in data set [2] (setting [3]), the MCP-1 was 25.4 and 25.6 and 31.2 and 21.8; the MIP-1 gama is 280.3 and 263.7 and 278.8 and 275.6; the MIP-2 is 203.2 and 193.1 and 174.2 and 159.2; the PF-4 was 302.3 and 268.3 and 285.4 and 298.4. Also, in data set [2] (setting [3]), the sTNF-RI is 143.4 and 116.1 and 179.9 and 149.3. Further, the BLC in data set [2] (CLP + P2-1 1.0 mg/kg i.p. 2 h and 20 h post-CLP, 1 mg/kg) was 42.8 and 33.1 and 30.9 and 35.4. In data set [2] (CLP + P2-1 1.0 mg/kg, 1 mg/kg), the G-CSF is 111.9 and 128.7 and 120.4 and 100.4; the GM-CSF is 0.79 and 1.5 and 1.2 and 3.4; the IL-6 is 16.8 and 16.2 and 14.3 and 20.4; the KC was 151.9 and 155 and 10.5 and 15.5. For the same compound, in data set [2] (CLP + P2-1 1.0 mg/kg, 1 mg/kg), the MCP-1 is 6.8 and 7.9 and 7.4 and 5.2; the MIP-1 gama is 128.6 and 137.5 and 54.5 and 68.8; the MIP-2 is 172.1 and 177.3 and 14.9 and 12.4; the PF-4 was 109.2 and 118.3 and 114.4 and 64.9. Moreover, the sTNF-RI in data set [2] (CLP + P2-1 1.0 mg/kg, 1 mg/kg) is 21.5 and 32.7 and 198.2 and 143.4. The “sepsis-induced systemic cytokines/chemokines, in words” value in data set [2] (P2-1 i.p. at 2 h and 20 h post-CLP, blood at 24 h, BLC, G-CSF, IL-6, KC, MIP-1γ, MIP-2, PF-4, sTNFRI) is on record as “significantly reduced sepsis-induced systemic accumulation”.

Source of the values: paper PMC12914960, “Repurposing a detrimental antibody epitope as targeted therapeutics for sepsis and rheumatoid arthritis” (Military Medical Research, 2026).
